Where “and” joins values, the source holds several entries; their conditions need not be identical. Equal entries are not always repeated. Where two headings read alike, the source gives them in different places.
Assays:
α7 AChRs [1] = target: T1, α7 AChRs (Homo sapiens, UniProt P36544); test: Acute activation, FLEXStation membrane potential dye, α7/RIC-3 cell line; assay type: cell-based; design: expressed in transfected cells; grown in VPA and PBA
Method: (§1) The parental cell line used for transfections was tsA201, derived from the human embryonic kidney cell line (HEK) 293 [33]. […] The cell line permanently expressing α3β4 AChRs has been described, [34]. A stable cell line expressing functional α7 AChRs was prepared by initially transfecting the tsA201 cell line with cDNA for α7 and subsequently transfecting with cDNA for the AChR-selective chaperone, human RIC-3.
(§2) Responses to nicotinic agonists were determined using a FLEXStation microplate fluorometer (Molecular Devices, Sunnyvale, CA) as described. For cell lines expressing α4β2 and α3β4 AChRs, the cells were plated at 10^5 cells/ml (100 µl/well) in black-walled clear-bottom 96 well plates (Costar, Fisher Scientific, Pittsbugh, PA), and incubated for 48 hours prior to assaying responses to various nicotinic agonists. The α7/RIC-3 expressing cells were plated at 5×10^5/ml in black-walled clear-bottom 96 well BioCoat plates (BD Biosciences, Franklin Lakes, NJ) in the continued presence of VPA and PBA, with the addition of 5% human AB serum (Pel-Freez Biologicals, Rogers, AR) to further increase expression of α7 [35]. The cells were then grown for 24 hours prior to the assay.
(§3) To measure responses to various nicotinic agonists, 100 µl of a fluorescent dye which is sensitive to changes in membrane potential (Molecular Devices) was added to the wells. The dye was prepared according to the manufacturer’s instructions, with the addition of atropine (0.5 µM) to block muscarinic responses. The plates were then incubated at 37°C for one hour prior to the assay. Serial dilutions of agonists were then prepared in Hanks Balanced Salt Solution (HBSS) in V-shaped 96-well plates (Fisher Scientific Co, Pittsburgh, PA). Fluorescent responses were measured in the FLEX Station at 25°C, with an excitation wavelength of 530 nm and an emission wavelength of 565 nm. Various agonists (50 µl) were added after the first 20 seconds and responses were followed for 60–120 seconds.
(§4) Data were graphed using GraphPad Prism software. Non-linear models (sigmoidal dose-response with variable slope or two site competition) were used to fit the concentration response curves. The EC50 and IC50 were calculated from the curves. Kaleidagraph software was used to determine Hill slopes and standard errors of the EC50 and IC50.

α3β4 AChRs [2] = target: T2, α3β4 AChRs (Homo sapiens, UniProt P30926+P32297); test: Acute activation, FLEXStation membrane potential dye, α3β4 cell line; assay type: cell-based
T2 construct: expressed in transfected cells
Method: as §1, §2, §3, §4

human α4β2 AChRs [3] = target: T3, human α4β2 AChRs (Homo sapiens, UniProt P17787+P43681); test: Acute activation, FLEXStation membrane potential dye, α4β2 cell line; assay type: cell-based; conditions: for Agonist type (full or partial): α4β2, mixture of stoichiometries
T3 construct: expressed in transfected cells
Method: as §1, §2, §3, §4

human α4β2 AChRs [4] = target: T3, human α4β2 AChRs; test: Chronic desensitization (16 h agonist, then ACh response) and calculated smoldering activation, α4β2 cell line; assay type: cell-based; conditions: for Extent of desensitization of α4β2 AChRs to ACh: prolonged exposure, up to high concentrations; for Emax at 1 µM: 1 µM varenicline, read-out: Smoldering activation, % of the maximum response; for AChRs desensitized: varenicline 1 µM
Method: (§5) To measure desensitization, plates were prepared as for agonist assays. Sixteen hours prior to the assay, serial dilutions of agonists, prepared in regular growth medium, were added to the plates. One hour before the assay, the membrane potential-sensitive fluorescent dye with 0.5 µM atropine was added to the wells. […] Each data point represents the average of peak values for individual dose response curves from 4–8 wells.
as §4
(§6) Responses for the three different AChRs are shown in Figures 3, 4, 5, 6, along with the dose response curves for activation (the same as shown in Figure 2). The range of concentrations at which both sustained activation and desensitization can occur (“smoldering activation”) was calculated by multiplying the acute response to agonists at each concentration by the fractional response remaining after desensitization.

α3β4 AChRs [5] = target: T2, α3β4 AChRs; test: Chronic desensitization (16 h agonist, then ACh response) and calculated smoldering activation, α3β4 cell line; assay type: cell-based; conditions: for Hill (desensitization) / Intercept of Activation and Desensitization Curves: α3β4: 1.0 mM ACh
Method: as §5, §4, §6

α7 AChRs [6] = target: T1, α7 AChRs; test: Chronic desensitization (16 h agonist, then ACh response) and calculated smoldering activation, α7 cell line; assay type: cell-based; design: expressed in transfected cells; grown in VPA and PBA; conditions: for Hill (desensitization) / Intercept of Activation and Desensitization Curves: α7: 10 µM ACh
Method: as §5, §4, §6

(α4β2)2β2 AChRs = target: T4, (α4β2)2β2 AChRs (Homo sapiens, UniProt P17787+P43681); conditions: (α4β2)2β2, concatenated AChRs in Xenopus oocytes; cited from earlier work
T4 construct: expressed in transfected cells

(α4β2)2α4 AChRs = conditions: (α4β2)2α4, concatenated AChRs in Xenopus oocytes; cited from earlier work
[7] = cited from earlier work
[8] = cited from earlier work; remark: listed apart in the source
[9] = α4β2, higher sensitivity component or monophasic curve
[10] = α4β2, lower sensitivity component
[11] = α4β2: 3 µM ACh ((α4β2)2β2 stoichiometry), centre of smoldering activation
[12] = α4β2: 3 µM ACh, first component
[13] = α4β2: 100 µM ACh (both stoichiometries)
[14] = α4β2: 100 µM ACh, first component

T2 sequence (P32297 32-505): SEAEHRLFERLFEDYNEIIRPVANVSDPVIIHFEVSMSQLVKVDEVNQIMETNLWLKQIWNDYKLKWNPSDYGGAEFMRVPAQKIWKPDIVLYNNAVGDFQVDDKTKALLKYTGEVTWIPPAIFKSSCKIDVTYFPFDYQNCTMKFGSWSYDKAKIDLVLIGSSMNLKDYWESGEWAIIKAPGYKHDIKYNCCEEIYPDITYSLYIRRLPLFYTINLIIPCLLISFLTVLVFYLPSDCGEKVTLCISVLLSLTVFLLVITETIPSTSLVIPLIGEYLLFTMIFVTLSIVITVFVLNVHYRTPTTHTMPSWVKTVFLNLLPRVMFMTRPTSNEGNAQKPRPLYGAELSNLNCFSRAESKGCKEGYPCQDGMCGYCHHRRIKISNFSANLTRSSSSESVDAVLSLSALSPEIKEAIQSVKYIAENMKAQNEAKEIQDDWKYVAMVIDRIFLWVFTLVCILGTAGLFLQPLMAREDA
T2 sequence (P30926 22-498): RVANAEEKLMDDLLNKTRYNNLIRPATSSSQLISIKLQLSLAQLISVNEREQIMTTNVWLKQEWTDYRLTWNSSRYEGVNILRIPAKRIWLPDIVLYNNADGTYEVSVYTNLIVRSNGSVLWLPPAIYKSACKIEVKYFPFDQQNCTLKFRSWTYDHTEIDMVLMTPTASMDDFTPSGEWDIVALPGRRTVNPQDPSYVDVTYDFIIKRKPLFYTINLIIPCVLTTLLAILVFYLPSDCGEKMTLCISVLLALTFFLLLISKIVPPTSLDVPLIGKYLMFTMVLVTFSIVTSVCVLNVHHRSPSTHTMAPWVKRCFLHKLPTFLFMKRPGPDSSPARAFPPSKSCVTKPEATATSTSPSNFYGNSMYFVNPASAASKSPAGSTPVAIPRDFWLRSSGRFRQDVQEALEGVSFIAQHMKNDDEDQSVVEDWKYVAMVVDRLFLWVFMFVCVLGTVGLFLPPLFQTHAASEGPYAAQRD
T3 sequence (P43681 29-627 limits assumed): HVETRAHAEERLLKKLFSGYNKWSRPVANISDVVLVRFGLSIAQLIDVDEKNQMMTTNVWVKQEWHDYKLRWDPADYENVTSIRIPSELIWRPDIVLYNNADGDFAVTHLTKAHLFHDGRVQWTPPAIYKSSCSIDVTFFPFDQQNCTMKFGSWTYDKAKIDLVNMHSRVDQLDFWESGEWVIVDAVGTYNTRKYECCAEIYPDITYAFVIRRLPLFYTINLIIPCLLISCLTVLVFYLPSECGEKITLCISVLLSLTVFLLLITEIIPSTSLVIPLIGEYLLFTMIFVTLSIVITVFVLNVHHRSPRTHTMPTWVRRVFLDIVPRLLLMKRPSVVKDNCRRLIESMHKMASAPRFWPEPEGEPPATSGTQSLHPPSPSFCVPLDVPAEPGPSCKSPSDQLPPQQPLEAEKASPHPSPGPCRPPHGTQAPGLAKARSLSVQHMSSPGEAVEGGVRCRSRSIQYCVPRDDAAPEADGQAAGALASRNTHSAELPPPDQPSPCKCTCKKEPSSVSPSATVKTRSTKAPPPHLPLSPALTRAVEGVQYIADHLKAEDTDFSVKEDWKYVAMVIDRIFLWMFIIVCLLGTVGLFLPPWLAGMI
T3 sequence (P17787 26-502): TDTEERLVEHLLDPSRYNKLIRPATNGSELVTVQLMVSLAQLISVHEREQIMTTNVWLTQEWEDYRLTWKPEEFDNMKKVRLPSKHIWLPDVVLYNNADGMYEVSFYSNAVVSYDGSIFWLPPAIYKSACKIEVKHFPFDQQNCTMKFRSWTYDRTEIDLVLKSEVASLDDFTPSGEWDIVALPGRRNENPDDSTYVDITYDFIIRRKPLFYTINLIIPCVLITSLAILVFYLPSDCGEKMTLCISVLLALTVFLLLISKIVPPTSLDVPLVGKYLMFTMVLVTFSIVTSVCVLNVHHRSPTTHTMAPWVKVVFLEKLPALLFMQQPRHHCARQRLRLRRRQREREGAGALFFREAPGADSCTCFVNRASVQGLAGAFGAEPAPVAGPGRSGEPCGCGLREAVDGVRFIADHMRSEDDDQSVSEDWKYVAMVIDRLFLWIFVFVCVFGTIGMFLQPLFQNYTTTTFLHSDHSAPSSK
T1 sequence (P36544 23-502): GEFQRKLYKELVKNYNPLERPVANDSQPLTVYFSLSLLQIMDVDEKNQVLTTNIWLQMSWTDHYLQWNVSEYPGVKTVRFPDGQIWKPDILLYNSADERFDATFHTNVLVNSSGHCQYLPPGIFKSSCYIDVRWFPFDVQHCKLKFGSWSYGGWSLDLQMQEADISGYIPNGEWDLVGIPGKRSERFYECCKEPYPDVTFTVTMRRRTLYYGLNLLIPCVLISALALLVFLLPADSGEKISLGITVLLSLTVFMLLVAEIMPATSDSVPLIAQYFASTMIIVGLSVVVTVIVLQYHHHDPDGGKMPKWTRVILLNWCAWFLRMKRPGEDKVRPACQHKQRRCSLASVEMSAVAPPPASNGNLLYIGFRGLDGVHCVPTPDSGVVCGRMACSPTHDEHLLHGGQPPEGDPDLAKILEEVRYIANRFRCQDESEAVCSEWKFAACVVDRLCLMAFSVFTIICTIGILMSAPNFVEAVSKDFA
T4 sequence (P43681 29-627 limits assumed): as the sequence (P43681 29-627 limits assumed) above
T4 sequence (P17787 26-502): as the sequence (P17787 26-502) above

Structure (SMILES) | Hill (activation) (α7 AChRs [1]; α7) | Hill (activation) (α3β4 AChRs [2]; α3β4) | Agonist type (full or partial) (human α4β2 AChRs [3]) | Hill (activation) (human α4β2 AChRs [3]; [9]) | Hill (activation) (human α4β2 AChRs [3]; [10]) | Extent of desensitization of α4β2 AChRs to ACh (human α4β2 AChRs [4]) | Intercept of Activation and Desensitization Curves (human α4β2 AChRs [4]; [11]) | Hill (desensitization) (human α4β2 AChRs [4]; [12]) | Intercept of Activation and Desensitization Curves (human α4β2 AChRs [4]; [13]) | Hill (desensitization) (human α4β2 AChRs [4]; [14]) | Hill (desensitization) (α3β4 AChRs [5]) | Intercept of Activation and Desensitization Curves (α3β4 AChRs [5]) | Hill (desensitization) (α7 AChRs [6]) | Intercept of Activation and Desensitization Curves (α7 AChRs [6]) | further results
CC(=O)OCC[N+](C)(C)C [ACh, acetylcholine] | 2.4 | 1.8 | full agonists | 1.5 | 1.3 |  |  |  |  |  |  |  |  |  | Time to maximum response after agonist application (α7 AChRs [1]; α7, saturating ACh): ≤ 5 s; Amplitude of response to saturating concentration (α7 AChRs [1]; α7, saturating ACh (10 µM)): 54,000+/−3000 relative fluorescence units and 54,00+/−3000 relative fluorescence units; Amplitude of response to saturating concentration (α3β4 AChRs [2]; α3β4, saturating ACh (1.0 mM)): 161,000+/−14,000 relative fluorescence units; Amplitude of response to saturating concentration (human α4β2 AChRs [3]; α4β2, saturating ACh (300 µM)): 167,000+/−18,000 relative fluorescence units
O=c1cccc2n1C[C@@H]1CNC[C@H]2C1 [Cytisine, cytisine] | 4.3 | 1.3 | partial agonist | 0.9 |  | fully desensitizing | 0.45 µM | −1.1 | 0.74 µM | −1.2 | −0.6 | 4.1 µM | −1.4 | 2.1 µM | IC50 (human α4β2 AChRs [4]; Desensitization IC50, α4β2: 3 µM ACh, overnight (16 h) agonist, first (more sensitive) component): 1 ± 0.5 nM; IC50 (human α4β2 AChRs [4]; Desensitization IC50, α4β2: 3 µM ACh, overnight agonist, second component): 250 ± 100 nM; IC50 (human α4β2 AChRs [4]; Desensitization IC50, α4β2: 100 µM ACh, overnight (16 h) agonist, first (more sensitive) component): 3 ± 0.3 nM; IC50 (human α4β2 AChRs [4]; Desensitization IC50, α4β2: 100 µM ACh, overnight agonist, second component): 20000 nM; Concentration from which the desensitization dose response curve shows a plateau (human α4β2 AChRs [4]; α4β2, assayed with 100 µM ACh): above 10 nM; Hill (desensitization) (human α4β2 AChRs [4]; α4β2: 3 µM ACh, second component): −1.1; Hill (desensitization) (human α4β2 AChRs [4]; α4β2: 100 µM ACh, second component): −0.8; IC50 (α3β4 AChRs [5]): 1300 ± 500 nM; IC50 (α7 AChRs [6]): 4200 ± 740 nM; Agonist type ((α4β2)2β2 AChRs): inactive; EC50 (α7 AChRs [1]): 2000 ± 60 nM; Agonist type (full or partial) (α7 AChRs [1]; α7): full agonist; Efficacy (%) (relative to ACh) (α7 AChRs [1]; α7): 100%; EC50 (α3β4 AChRs [2]): 7500 ± 1100 nM; Agonist type (full or partial) (α3β4 AChRs [2]; α3β4): full agonist; Efficacy (%) (relative to ACh) (α3β4 AChRs [2]; α3β4): 100%; Agonist type ((α4β2)2α4 AChRs): partial agonist; EC50 (human α4β2 AChRs [3]; Activation EC50, α4β2 cell line, mixed stoichiometries, higher sensitivity component where two-site fit, else monophasic): 5500 ± 800 nM; Efficacy (%) (relative to ACh) (human α4β2 AChRs [3]; α4β2): 34%
CN1CCC[C@H]1c1cccnc1 [Nicotine, nicotine] | 1.7 | 1.1 | full agonists | 1.8 | 2.5 |  | 0.13 µM | −1.0 | 1.82 µM | −1.2 | −0.9 | 8.7 µM | −3.2 | 1.7 µM | Emax at 0.1 µM (human α4β2 AChRs [4]; read-out: Calculated smoldering activation, % of maximum response, (α4β2)2α4 stoichiometry, 0.1 µM nicotine): 18%; Emax at 0.1 µM (human α4β2 AChRs [4]; read-out: Calculated smoldering activation, % of maximum response, (α4β2)2β2 stoichiometry, 0.1 µM nicotine): 6%; Emax at […] (human α4β2 AChRs [4]; read-out: Calculated smoldering response, % of maximum response, (α4β2)2α4 stoichiometry, nicotine concentration of […]): 54%; Concentrations found in the blood of smokers [7]: 58 to 340 nM
c1cnc2cc3c(cc2n1)[C@@H]1CNC[C@H]3C1 [Varenicline, varenicline] | 3.5 | 1.4 | partial agonists | 1.1 | 1.8 | fully desensitizing | 0.16 µM | −0.6 | 0.93 µM | −1.0 | −1.1 | 2.1 µM | −2.6 | 0.4 µM | Emax at 1 µM (human α4β2 AChRs [4]; (α4β2)2α4 AChRs): 23%; AChRs desensitized (human α4β2 AChRs [4]; (α4β2)2α4 AChRs): ~50%; Emax at 1 µM (human α4β2 AChRs [4]; (α4β2)2β2 AChRs): 4.3%; AChRs desensitized (human α4β2 AChRs [4]; (α4β2)2β2 AChRs): > 90%; Peak levels ([8]; after 14 days on standard dose of 1 mg twice daily): 0.48 µM; Peak blood levels ([8]; humans, after a 1 mg dose): 0.1 µM; Levels reached in patients ([8]; patients on therapeutic doses): 400 nM

Source: article PMC3828267 (PLoS ONE, 2013)
